Tested on: healthy male subjects
Assay: Safety: treatment-emergent adverse events, MAD study
Assay type: in vivo, human
Method: Safety was assessed by monitoring adverse events (AEs) throughout the studies that were coded using the standard Medical Dictionary for Regulatory Activities (MedDRA) dictionary (versions 19.0 [SAD part 1], 20.0 [SAD part 2] and 21.1 [MAD]). Other safety monitoring included 12‐lead electrocardiography recordings, measurement of vital signs (systolic and diastolic blood pressure and heart rate), physical and neurological (Hamilton depression rating scale[17] and Beck depression inventory‐II fastscreen[18] [SAD only], mental status examination, cranial nerves assessment and motor system examination, sensation to light touch, coordination/cerebellar function assessment, Romberg's test, gait test, daytime sleepiness assessment [SAD and MAD studies]) examinations, haematology, biochemistry and urinalysis. To minimise risks in the SAD and MAD studies, subjects were dosed sequentially using sentinels in each cohort (1 IP, 1 placebo) as per European Medicines Agency guidelines.[19] If the previous dose was well tolerated, with no safety concerns, dose escalation was decided by the Safety Review Group after reviewing safety and PK data from all available cohorts. Moreover, treatment with the highest dose in the SAD study was repeated (cohort 10) for regular ophthalmological evaluations (assessments available as supplementary information) to better characterise visual AEs observed in the SAD study. Regular ophthalmological assessments were also performed in the MAD study.

CC(C)C[C@H]1C(=O)O[C@H](Cc2ccc(N3CCOCC3)cc2)C(=O)N(C)[C@@H](CC(C)C)C(=O)O[C@H](C)C(=O)N(C)[C@@H](CC(C)C)C(=O)O[C@H](Cc2ccc(N3CCOCC3)cc2)C(=O)N(C)[C@@H](CC(C)C)C(=O)O[C@H](C)C(=O)N1C [emodepside]
3 (50.0) n (%): TEAE: Eye disorders (LSF 5 mg OD n = 6) | TEAE: Eye disorders (LSF 10 mg BID n = 6)
1 (16.7) n (%): TEAE: General disorders and administration site disorders (LSF 5 mg OD n = 6) | TEAE: Respiratory, thoracic and mediastinal disorders (LSF 5 mg OD n = 6) | TEAE: Skin and subcutaneous tissue disorders (LSF 5 mg OD n = 6) | TEAE: General disorders and administration site disorders (LSF 10 mg BID n = 6) | TEAE: Immune system disorders (LSF 10 mg BID n = 6) | TEAE: Injury, poisoning and procedural complications (LSF 10 mg BID n = 6) | TEAE: Investigations (LSF 10 mg BID n = 6) | TEAE: Musculoskeletal and connective tissue disorders (LSF 10 mg BID n = 6) | TEAE: Eye disorders (LSF 10 mg OD n = 6) | TEAE: General disorders and administration site disorders (LSF 10 mg OD n = 6) | TEAE: Metabolism and nutrition disorders (LSF 10 mg OD n = 6) | TEAE: Psychiatric disorders (LSF 10 mg OD n = 6) | TEAE: Skin and subcutaneous tissue disorders (LSF 10 mg OD n = 6) | TEAE: Surgical and medicinal procedures (LSF 10 mg OD n = 6)
4 (66.7) n (%): TEAE: Infections and infestations (LSF 5 mg OD n = 6) | TEAE: Infections and infestations (LSF 10 mg OD n = 6)
5 (83.3) n (%): Any TEAE (LSF 5 mg OD n = 6)
0 n (%): TEAE: Immune system disorders (LSF 5 mg OD n = 6) | TEAE: Injury, poisoning and procedural complications (LSF 5 mg OD n = 6) | TEAE: Investigations (LSF 5 mg OD n = 6) | TEAE: Metabolism and nutrition disorders (LSF 5 mg OD n = 6) | TEAE: Surgical and medicinal procedures (LSF 5 mg OD n = 6) | TEAE: Gastrointestinal disorders (LSF 10 mg BID n = 6) | TEAE: Metabolism and nutrition disorders (LSF 10 mg BID n = 6) | TEAE: Nervous system disorders (LSF 10 mg BID n = 6) | TEAE: Psychiatric disorders (LSF 10 mg BID n = 6) | TEAE: Respiratory, thoracic and mediastinal disorders (LSF 10 mg BID n = 6) | TEAE: Skin and subcutaneous tissue disorders (LSF 10 mg BID n = 6) | TEAE: Surgical and medicinal procedures (LSF 10 mg BID n = 6) | TEAE: Gastrointestinal disorders (LSF 10 mg OD n = 6) | TEAE: Immune system disorders (LSF 10 mg OD n = 6) | TEAE: Injury, poisoning and procedural complications (LSF 10 mg OD n = 6) | TEAE: Investigations (LSF 10 mg OD n = 6) | TEAE: Nervous system disorders (LSF 10 mg OD n = 6) | TEAE: Respiratory, thoracic and mediastinal disorders (LSF 10 mg OD n = 6)
6 (100.0) n (%): Any TEAE (LSF 10 mg OD n = 6)
6 (100) n (%): Any TEAE (LSF 10 mg BID n = 6)
2 (33.3) n (%): TEAE: Gastrointestinal disorders (LSF 5 mg OD n = 6) | TEAE: Musculoskeletal and connective tissue disorders (LSF 5 mg OD n = 6) | TEAE: Nervous system disorders (LSF 5 mg OD n = 6) | TEAE: Psychiatric disorders (LSF 5 mg OD n = 6) | TEAE: Musculoskeletal and connective tissue disorders (LSF 10 mg OD n = 6)

Reference: PMC8518114, “Safety, tolerability and pharmacokinetics of emodepside, a potential novel treatment for onchocerciasis (river blindness), in healthy male subjects” (British Journal of Clinical Pharmacology, 2021)
